Data as given in patent US10513523B2, “Imidazopyrazines and pyrazolopyrimidines and their use as AMPA receptor modulators” (Janssen Pharmaceutica NV, priority 2015, dated 2019).

Columns and labels:
[1] = target: GluA1o-γ8 (GRIA1o-CACNG8 fusion construct; TARP γ8 dependent AMPA receptor) (Homo sapiens (Human), UniProt P42261+Q8WXS5); assay: Calcium flux assay (FLIPR), inhibition of glutamate response of GluA1o-γ8 channel; assay type: cell-based; settings: HEK293 cells stably expressing GRIA1o-CACNG8 fusion; 15 μM glutamate; pIC50 = negative log of IC50 in molar; read-out: GluR1-γ8 (pIC50) (converted)
Method in brief: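 Potency is the midpoint of a four-parameter logistic fit to control-normalized FLIPR calcium responses elicited by 15 μM glutamate. Stable HEK293 cells carried a fused GluA1o-γ8 construct and were preincubated with compound and calcium dye in pH 7.4 HEPES buffer.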

[2] = tested on: endogenous γ8-containing AMPA receptor currents; assay: Whole-cell electrophysiology on acutely-dissociated mouse hippocampal neurons; assay type: cell-based; settings: 10 mM glutamate, 500 ms, held at -60 mV
Protocol: The effects of selected compounds upon endogenous γ 8-containing AMPA receptor currents was evaluated using whole-cell electrophysiology on acutely-dissociated mouse hippocampal neurons. Hippocampus was chosen for this assay, since CACNG8 (the protein encoded by this gene is a type I transmembrane AMPA receptor regulatory protein i.e., TARP) is preferentially enriched in this brain region (Tomita et al. (2003). “Functional studies and distribution define a family of transmembrane AMPA receptor regulatory proteins.” J Cell Biol 161(4): 805-816.2003).
Hippocampi were dissected from C57black6 mice at 4-12 weeks postnatal, following the protocol described by Brewer (Brewer, G. J. (1997). “Isolation and culture of adult rat hippocampal neurons.” Journal of Neuroscience Methods 71(2): 143-155). The following is a brief summary of the procedure. Mice were asphyxiated with CO2 then decapitated. The brain was rapidly removed, then placed into ice-cold HABG medium. The recipe for HABG medium was: HibernateA supplemented with 2% B27 and 0.5 mM Glutamax (all reagents from Life Technologies). Hippocampi were micro-dissected from the brains, then washed with HABG without calcium (Hibernate A minus Calcium, BrainBits; 2% B27, Life Technologies; 0.5 mM glutamax, Life Technologies).
The hippocampi were then transferred to HABG without calcium, supplemented with 2 mg/mL papain (Worthington Biochemical). They were incubated at 30° C. on a roller for 40 min, then gently triturated with a fire-polished glass pipette. The supernatant containing dissociated neurons was collected, then centrifuged for 2 min at 200 g. The cell pellet was collected, and then resuspended in 8 mL of HABG. Live cells were counted, then plated onto 12 mm glass coverslips in HABG (2 mL) in 24-well plates at a density of 50-100 cells per coverslip. These cells were maintained at room temperature until use.
Whole-cell electrophysiology was performed using 1.5 mm diameter glass capillary tubes (World Precision Instruments TW150-4), pulled to a fine tip with a Sutter P-97 micropipette puller. The intracellular buffer was 90 mM KF, 30 mM KCl, 10 mM HEPES, and 5 mM EGTA, pH 7.4, 290mOs. The extracellular buffer was 135 mM NaCl, 4 mM KCl, 2 mM CaCl2, 1 mM MgCl2, 5 mM glucose, 10 mM HEPES, pH 7.4, 300 mOs. The open-tip resistances of the micropipettes using these solutions were 2-4 MΩ. Whole-cell recordings of neuron cell bodies were performed in voltage-clamp mode using an Axon Axopatch 200B amplifier. Whole-cell current was measured holding the interior of the cell at −60 mV, using a 5 kHz lowpass filter. The cells were continuously perfused through 7 mm square glass barrels using a solenoid-controlled solution switching device (Warner Instruments, PF-77B). The peak current in response to a 500 ms exposure to 10 mM glutamate every 5 seconds was measured, before and after exposure to test compound.
For analysis, the mean peak current of 5 traces in the presence of test compound was divided by the mean peak current of 5 traces prior to the addition of test compound. Compounds were tested at concentrations at least ten times higher than their estimated potency in the calcium flux assay, in order to ensure near-saturating occupancy of the receptor.

Chain of GluA1o-γ8 (GRIA1o-CACNG8 fusion construct; TARP γ8 dependent AMPA receptor) (P42261 other isoform, or with tags, fused parts or gaps): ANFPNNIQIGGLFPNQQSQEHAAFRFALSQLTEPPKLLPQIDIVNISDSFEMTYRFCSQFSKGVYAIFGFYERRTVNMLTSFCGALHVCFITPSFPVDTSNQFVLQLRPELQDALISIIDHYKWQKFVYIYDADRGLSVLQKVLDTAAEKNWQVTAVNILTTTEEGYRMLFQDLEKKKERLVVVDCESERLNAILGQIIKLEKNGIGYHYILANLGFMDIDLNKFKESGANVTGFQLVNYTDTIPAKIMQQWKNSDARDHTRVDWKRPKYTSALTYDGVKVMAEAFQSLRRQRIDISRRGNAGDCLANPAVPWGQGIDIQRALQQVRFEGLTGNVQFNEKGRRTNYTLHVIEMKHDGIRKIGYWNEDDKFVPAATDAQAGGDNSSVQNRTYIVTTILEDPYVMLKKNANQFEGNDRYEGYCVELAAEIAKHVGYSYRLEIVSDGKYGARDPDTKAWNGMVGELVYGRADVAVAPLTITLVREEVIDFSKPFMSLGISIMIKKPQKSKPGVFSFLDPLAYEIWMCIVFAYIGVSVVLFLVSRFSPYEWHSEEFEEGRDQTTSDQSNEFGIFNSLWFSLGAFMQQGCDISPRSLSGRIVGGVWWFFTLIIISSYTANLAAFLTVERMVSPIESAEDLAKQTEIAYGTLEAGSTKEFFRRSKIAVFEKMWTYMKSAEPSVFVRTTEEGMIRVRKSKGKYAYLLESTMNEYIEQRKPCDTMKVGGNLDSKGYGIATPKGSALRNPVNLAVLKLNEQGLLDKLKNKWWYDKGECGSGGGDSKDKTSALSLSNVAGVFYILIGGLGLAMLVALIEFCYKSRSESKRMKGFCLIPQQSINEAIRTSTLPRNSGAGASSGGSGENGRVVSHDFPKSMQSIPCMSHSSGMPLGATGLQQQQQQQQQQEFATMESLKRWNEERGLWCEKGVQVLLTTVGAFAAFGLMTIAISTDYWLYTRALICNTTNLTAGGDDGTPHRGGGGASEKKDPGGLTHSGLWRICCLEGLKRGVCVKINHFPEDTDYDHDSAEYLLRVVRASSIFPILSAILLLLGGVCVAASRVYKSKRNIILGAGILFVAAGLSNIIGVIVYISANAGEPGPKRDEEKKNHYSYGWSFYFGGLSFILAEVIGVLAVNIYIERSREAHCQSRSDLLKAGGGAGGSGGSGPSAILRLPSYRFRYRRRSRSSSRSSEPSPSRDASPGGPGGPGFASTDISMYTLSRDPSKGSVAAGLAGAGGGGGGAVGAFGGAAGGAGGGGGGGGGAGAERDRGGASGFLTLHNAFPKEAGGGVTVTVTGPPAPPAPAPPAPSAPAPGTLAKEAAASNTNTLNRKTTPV

Structure (SMILES) | IC50 [1] | peak current (% control) ([2]; 0.1 μM test compound) | peak current (% control) ([2]; 10 μM test compound) | peak current (% control) ([2]; 1 μM test compound)
CC(=O)N1CCN(c2nccn3c(-c4ccc5c(c4)CC(=O)N5)c(Cc4ccccc4)nc23)CC1 [Example 17, 5-[8-(4-Acetylpiperazin-1-yl)-2-benzyl-imidazo[1,2-a]pyrazin-3-yl]indolin-2-one] | 1.26 nM | 68% | – | –
Oc1ccc(-c2c(-c3ccc(F)cc3)nc3c(N4CC5(COC5)C4)nccn23)cc1 [Example 7, 4-[2-(4-Fluorophenyl)-8-(6-oxa-2-azaspiro[3.3]heptan-2-yl)imidazo[1,2-a]pyrazin-3-yl]phenol] | 50.1 nM | – | 55% | –
CC(=O)N1CCN(c2nccn3c(-c4ccc5c(c4)CC(=O)N5)c(-c4ccc(F)cc4)nc23)CC1 [Example 12, 5-[8-(4-Acetylpiperazin-1-yl)-2-(4-fluorophenyl)imidazo[1,2-a]pyrazin-3-yl]indolin-2-one] | 0.398 nM | 69% | – | –
Oc1ccc(-c2c(-c3ccc(F)cc3)nc3c(N4CCOCC4)nccn23)cc1 [Example 83, 4-[2-(4-Fluorophenyl)-8-morpholino-imidazo[1,2-a]pyrazin-3-yl]-phenol] | 12.6 nM | – | 78% | –
O=C1Cc2cc(-c3c(-c4ccc(F)cc4)nc4c(N5CCC(O)CC5)nccn34)ccc2N1 [Example 37, 5-[2-(4-Fluorophenyl)-8-(4-hydroxy-1-piperidyl)imidazo[1,2-a]pyrazin-3-yl]indolin-2-one] | 0.316 nM | 66% | – | –
Fc1ccc(-c2nc3c(N4CCOCC4)nccn3c2-c2ccc3[nH]ncc3c2)cc1 [Example 10, 4-[2-(4-Fluorophenyl)-3-(1H-indazol-5-yl)imidazo[1,2-a]pyrazin-8-yl]morpholine] | 0.631 nM | 64% | – | 74%
O=C1Cc2cc(-c3c(-c4ccccc4)nn4c(N5CC(F)C5)nccc34)ccc2N1 [Example 200, 5-[7-(3-Fluoroazetidin-1-yl)-2-phenyl-pyrazolo[1,5-c]pyrimidin-3-yl]indolin-2-one] | 3.16 nM | – | – | –
CC(C)(C)c1nc2c(N3CCC(O)CC3)nccn2c1-c1ccc2c(c1)CC(=O)N2 [Example 88, 5-[2-tert-Butyl-8-(4-hydroxy-1-piperidyl)imidazo[1,2-a]pyrazin-3-yl]indolin-2-one] | 126 nM | – | – | –
CC(=O)N1CCN(c2nccn3c(-c4ccc5c(c4)CC(=O)N5)c(-c4ccc(C#N)cc4)nc23)CC1 [Example 107, 4-[8-(4-Acetylpiperazin-1-yl)-3-(2-oxoindolin-5-yl)imidazo[1,2-a]pyrazin-2-yl]benzonitrile] | 2.51 nM | 67% | – | –
Oc1ccc(-c2c(-c3ccccc3F)nc3c(N4CCOCC4)nccn23)cc1 [Example 84, 4-[2-(2-Fluorophenyl)-8-morpholino-imidazo[1,2-a]pyrazin-3-yl]phenol] | 63.1 nM | – | – | –
Nc1nccn2c(-c3ccc4c(c3)CC(=O)N4)c(-c3ccc(F)cc3)nc12 [Example 248, 5-[8-Amino-2-(4-fluorophenyl)imidazo[1,2-a]pyrazin-3-yl]indolin-2-one] | 5010 nM | – | – | –
CC(C)c1nn2cnc(C(F)(F)F)cc2c1-c1ccc2c(c1)CC(=O)N2 [Example 227, 5-[2-Isopropyl-5-(trifluoromethyl)pyrazolo[1,5-c]pyrimidin-3-yl]indolin-2-one] | 1580 nM | – | – | –
CC(=O)N1CCN(c2nccn3c(-c4ccc(O)cc4)c(-c4ccc(F)cc4)nc23)CC1 [Example 1, 1-[4-[2-(4-Fluorophenyl)-3-(4-hydroxyphenyl)imidazo[1,2-a]pyrazin-8-yl]piperazin-1-yl]ethanone] | 6.31 nM | – | 81% | –
O=C1Cc2cc(-c3c(-c4ccc(F)cc4)nc4c(N5CC(Cl)C5)nccn34)ccc2N1 [Example 61, 5-[8-(3-Chloroazetidin-1-yl)-2-(4-fluorophenyl)imidazo[1,2-a]pyrazin-3-yl]indolin-2-one] | 1.58 nM | – | – | –
c1ccc(-c2nn3c(N4CCOCC4)nccc3c2-c2ccc3[nH]ncc3c2)cc1 [Example 233, 4-[3-(1H-Indazol-5-yl)-2-phenyl-pyrazolo[1,5-c]pyrimidin-7-yl]morpholine] | 0.398 nM | – | – | –
CN(C)c1nccn2c(-c3ccc4c(c3)CC(=O)N4)c(C(=O)c3ccccc3)nc12 [Example 152, 5-[2-Benzoyl-8-(dimethylamino)imidazo[1,2-a]pyrazin-3-yl]indolin-2-one] | 3.98 nM | – | – | –
O=C1Cc2cc(-c3c(-c4ccc(F)cc4)nc4c(N5CCC(F)CC5)nccn34)ccc2N1 [Example 74, 5-[2-(4-Fluorophenyl)-8-(4-fluoro-1-piperidyl)imidazo[1,2-a]pyrazin-3-yl]indolin-2-one] | 0.0794 nM | – | – | –
COC1CCN(c2nccc3c(-c4ccc5[nH]c(=O)sc5c4)c(C(C)C)nn23)CC1 [Example 241, 6-[2-Isopropyl-7-(4-methoxy-1-piperidyl)pyrazolo[1,5-c]pyrimidin-3-yl]-3H-1,3-benzothiazol-2-one] | 2.51 nM | – | – | –
O=c1[nH]c2ccc(-c3c(-c4ccc(F)cc4)nn4c(N5CCOCC5)nccc34)cc2o1 [Example 173, 6-[2-(4-Fluorophenyl)-7-morpholino-pyrazolo[1,5-c]pyrimidin-3-yl]-3H-1,3-benzoxazol-2-one] | 1.26 nM | – | – | –
Cc1cc(O)ccc1-c1c(-c2ccc(F)cc2)nc2c(N3CCOCC3)nccn12 [Example 2, 4-[2-(4-Fluorophenyl)-8-morpholino-imidazo[1,2-a]pyrazin-3-yl]-3-methyl-phenol] | 31.6 nM | – | – | –
